In US7112680B2, “Heterocyclic hydrazones for use as anti-cancer agents” (Austria Wirtschaftsservice Gesellschaft MIT Beschrankter …, priority 2000, dated 2006):
pIC50: −log10 of the molar value. Where two headings read alike, the source gives them in different places.

What was measured:
[1] = system: HeLa (epitheloid cervix carcinoma); experiment: Inhibition of tumor cell growth, SRB-assay, HeLa; type: cell-based, human; conditions: for IC50: read-out: IC50 HeLa (converted); for pIC50: Table 4, 72 hours, read-out: In vitro-activity against human tumor cell lines, HeLa
[2] = system: HT-29 (colon adenocarcinoma); experiment: Inhibition of tumor cell growth, SRB-assay, HT-29; type: cell-based, human; conditions: for IC50: read-out: IC50 HT-29 (converted); for pIC50: read-out: In vitro-activity against human tumor cell lines, HT-29
Protocol: (§1) The KB cell lines were grown in Dulbecco's modified Eagle's medium (4,5 g glucose/l). To the cultures of KB-C1 cells 1 μg of colchicine/ml, and to the hydroxyurea-resistant KB-HU cells 1 mM hydroxyurea was added every other week. […] 3,000 - 10,000 cells in 200 μl medium were seeded per well into 96-well plates. […] Approximately 10,000 cells per 100 μl were seeded in 96-well plates. […] The substances were dissolved in dimethylsulfoxide (DMSO). […] Subsequently, the samples were fixed, washed, and the absorption was determined by a microplate reader.

[3] = system: K562 (chronic myelogenous leukemia); experiment: Inhibition of tumor cell growth, K562; type: cell-based, human; conditions: 72 hours
Protocol: (§2) In order to obtain information about the growth-inhibiting action on tumor cells, the inhibition of the growth of the following human tumor cells was determined: Burkitt's lymphoma (CA 46, ATCC No. CRL 1648), CCRF-CEM (acute lymphoblastic leukemia, ATCC No. CCL 119), K562 (chronic myelogenous leukemia, ATTC No. CCL 243), HeLa (epitheloid cervix carcinoma, ATCC No. CCL 2), MEXF 276L (melanoma), HT-29 (colon adenocarcinoma, ATCC No. HTB 38), KB-3-1 (human oral epidermoid carcinoma, CTCC No. CCL 17), KB-HU hydroxyurea-resistant, multidrug-resistant KB-C1 cells (Akiyama et al, Cell. Mol Genet., 11:117–126, 1985). Burkitt's, CCRF-CEM, HeLa and MEXF 276L cells were grown in RPMI 1640, HT-29 cells in McCoy's 5A medium. The KB cell lines were grown in Dulbecco's modified Eagle's medium (4,5 g glucose/l). To the cultures of KB-C1 cells 1 μg of colchicine/ml, and to the hydroxyurea-resistant KB-HU cells 1 mM hydroxyurea was added every other week. The media were supplemented with 10% fetal calf serum (except Burkitt's lymphoma cells with 15%), 2 mM glutamine, 50 units/ml penicillin and 50 μg/ml streptomycin. Inhibition of growth of HeLa, HT-29, KB and MEXF 276L cells was detected by the SRB-assay (Skehan et al, J. Natl Cancer Inst., 82:1107–1112, 1990). 3,000 - 10,000 cells in 200 μl medium were seeded per well into 96-well plates. Dose-response curves for CCRF-CEM and Burkitt's lymphoma cells were effected by an MTT-assay (Mosman, J. Immunol Methods, 65:55–63, 1983) from Boehringer Mannheim, Mannheim, Germany. Approximately 10,000 cells per 100 μl were seeded in 96-well plates. After an initial incubation of four hours, various substance concentrations were added, and the cells were incubated at 37° C. in a water-saturated atmosphere of 95% air and 5% CO2 for 72 hours. The substances were dissolved in dimethylsulfoxide (DMSO). The concentration of DMSO was 0.5%, and this was not toxic to the cells. Subsequently, the samples were fixed, washed, and the absorption was determined by a microplate reader.

[4] = system: Burkitt's lymphoma (CA 46, ATCC No. CRL 1648); experiment: Inhibition of tumor cell growth, MTT-assay, Burkitt's lymphoma; type: cell-based, human
Protocol: as §1

[5] = system: human tumor grafts (cell lines of FIG. 1); experiment: Colony forming assay (two-layer soft agar); type: cell-based; conditions: for pIC50 / IC90 / Mean IC70: mean values of all cell lines tested in FIG. 1, continuous exposure 3 to 6 days; for tumor type selectivity: IC70 pattern, FIG. 1
Protocol: An excellent correlation of drug response in patients and the colony forming assay has been found (Scholz et al, Eur. J. Cancer 25:901–905, 1990). Solid human tumors were grown as grafts in nude mice, removed from the latter, mechanically comminuted and subsequently incubated in an enzyme cocktail consisting of collagenase (1.2–1.8 U/ml), DNAse (375 U/ml) and hyaluronidase (29 U/ml) in RPMI 1640 medium at 37° C. for 30 minutes. The cell mixture was passed through sieves of 200 μm and 50 μm mesh size and washed thereafter twice with PBS (phosphate buffered saline). The percentage of live cells was determined using a Neubauer counting chamber and trypan blue staining.
The colony forming assay was performed according to a two-layer agar technique introduced and modified by Hamburger and Salmon (Hamburger and Salmon, Science, 197:461–463, 1977). The bottom layer consisted of 0.2 ml of Iscoves's Modified Dulbecco's medium with 20% fetal calf serum and 0.75% agar. 8×10^3 to 1.6×10^4 cells were added to the same medium and 0.4% agar and plated in 24-multiwell plates onto the base layer. One day after the plating (with continuous exposure), the substances were added in 0.2 ml medium. Each plate included six controls containing the solvent only, and the treated groups contained 6 concentrations of the substances, each in triplicate. Cultures were incubated at 37° C. and 7% CO2 in a water-saturated atmosphere for 3 to 6 days, depending on the doubling time of the tumor cells. At the time of maximum colony formation with a size of […], counts were performed with an automatic image analysis system. 24 h prior to counting, live colonies were stained with a sterile aqueous solution of 2-(4-iodophenyl)-3-(4-nitrophenyl)-5-phenyltetrazolium chloride (1 mg/ml, 100 μl/well). The results of the tests are given in FIG. 1, and in the following Table 5, respectively. […] Columns pointing towards the right show a slighter than average activity.

Burkitt's lymphoma cells = experiment: Apoptosis determination with propium iodide; type: cell-based, human; conditions: for induction of apoptosis (in words): tumor cells; for apoptotic cells: twice the IC50 concentrations, 48 hours, non-treated cells 1.7%
Protocol: In non-treated Burkitt's lymphoma cells, an average of 1.7% are apoptotic. […] The determination of the apoptosis was performed with propium iodide (Nicoletti et al., Rapid and Simple Method for Measuring Thymocyte Apoptosis by Propium Iodine Staining and Flow Cytometry, J. Immunol. Methods, 139, 271–279, 1991).

[6] = system: KB-HU hydroxyurea-resistant cells; experiment: Inhibition of tumor cell growth, SRB-assay, KB-HU; type: cell-based, human; conditions: Table 4, 72 hours, read-out: In vitro-activity against human tumor cell lines, KB-HU
Protocol: as §2

[7] = system: KB-3-1 (human oral epidermoid carcinoma); experiment: Inhibition of tumor cell growth, SRB-assay, KB-3-1; type: cell-based; conditions: read-out: In vitro-activity against human tumor cell lines, KB-3-1
Protocol: as §2

[8] = system: multidrug-resistant KB-C1 cells; experiment: Inhibition of tumor cell growth, SRB-assay, KB-C1; type: cell-based, human; conditions: read-out: In vitro-activity against human tumor cell lines, KB-C1
Protocol: as §2

[9] = Table 1, 72 hours, read-out: IC50 Burkitts
[10] = Homo sapiens, HeLa, Table 3, 72 hours
[11] = Homo sapiens, HT-29, Table 3, 72 hours
[12] = Homo sapiens, CA46, Table 3, 72 hours, read-out: IC50 Burkitts
[13] = Table 3, 72 hours, read-out: IC50 Burkitts

CCC(=NNc1nc2ccccc2n1C)c1ccccn1 [Ia-8]
IC50 ([1]; Table 1, 72 hours): 0.02 µM
IC50 ([2]; Table 1, 72 hours): 11 µM
pIC50 ([3]; Table 1): 7.05
pIC50 [4, 9]: 6.00

CCCC(=NNc1nc2ccccc2n1C)c1ccccn1 [Ia-12]
IC50 ([1]; Table 1, 72 hours): 0.017 µM
IC50 ([2]; Table 1, 72 hours): 16.3 µM
pIC50 [5]: 6.61
IC90 [5]: 3.74 µM
Mean IC70 [5]: 0.603 µM
pIC50 ([3]; Table 1): 7.10
pIC50 [4, 9]: 5.75

CC(C)C(=NNc1nc2ccccc2n1C)c1ccccn1 [Ia-16]
IC50 ([1]; Table 1, 72 hours): 0.006 µM
IC50 ([2]; Table 1, 72 hours): 5.58 µM
tumor type selectivity ([5]; colony forming assay): selectivity for colon, breast, ovarian, and uterus tumors
pIC50 [5]: 6.73
IC90 [5]: 3.77 µM
Mean IC70 [5]: 0.521 µM
pIC50 ([3]; Table 1): 7.30

Cn1c(NN=C(c2ccccn2)C(C)(C)C)nc2ccccc21 [Ia-20]
IC50 ([1]; Table 1, 72 hours): 0.53 µM
IC50 ([2]; Table 1, 72 hours): > 100 µM
pIC50 [5]: 7.82
IC90 [5]: 0.231 µM
Mean IC70 [5]: 0.064 µM
pIC50 ([3]; Table 1): 5.77
pIC50 [4, 9]: 5.07

Cn1c(NN=C(c2ccccn2)C2CC2)nc2ccccc21 [Ia-24, E/Z-Cyclopropyl-(2-pyridyl)-methanone-(1-methyl-1H-benzo[d]imidazol-2-yl)-hydrazone]
IC50 ([1]; Table 1, 72 hours): 0.002 µM
IC50 ([2]; Table 1, 72 hours): 2.88 µM
tumor type selectivity ([5]; colony forming assay): selectivity for colon, breast, ovarian, and uterus tumors
pIC50 [5]: 6.86
IC90 [5]: 3.14 µM
Mean IC70 [5]: 0.387 µM
pIC50 ([3]; Table 1): 7.40

Cn1c(NN=C(c2ccccc2)c2ccccn2)nc2ccccc21 [Ia-29]
IC50 ([1]; Table 1, 72 hours): 0.009 µM
IC50 ([2]; Table 1, 72 hours): 8.74 µM
tumor type selectivity ([5]; colony forming assay): selectivity for colon, breast, ovarian, and uterus tumors
pIC50 [5]: 6.53
IC90 [5]: 4.66 µM
Mean IC70 [5]: 0.741 µM
pIC50 ([3]; Table 1): 7.22

Cn1c(NN=C(c2ccccn2)c2ccccn2)nc2ccccc21 [Ia-37]
IC50 ([1]; Table 1, 72 hours): 0.09 µM
IC50 ([2]; Table 1, 72 hours): 4.64 µM
pIC50 ([3]; Table 1): 7.52

CCn1c(NN=C(C)c2ccccn2)nc2ccccc21 [Ic-1, 1-(2-Pyridyl)-1-ethanone-1-(1-ethyl-1H-benzo[d]imidazol-2-yl)hydrazone]
IC50 [1, 10]: 0.19 µM
IC50 [2, 11]: 11.9 µM
pIC50 ([3]; Homo sapiens, K562, Table 3): 7.22
pIC50 [4, 12]: 6.17

CCCn1c(NN=C(C)c2ccccn2)nc2ccccc21 [Ic-2]
IC50 ([1]; Table 3, 72 hours): 0.21 µM
IC50 ([2]; Table 3, 72 hours): 35.1 µM
pIC50 ([3]; Table 3): 6.92
pIC50 [4, 13]: 5.89

CC(=NNc1nc2ccccc2n1C(C)C)c1ccccn1 [Ic-3]
IC50 ([1]; Table 3, 72 hours): 0.06 µM
IC50 ([2]; Table 3, 72 hours): 16.1 µM
pIC50 [5]: 6.58
IC90 [5]: 4.3 µM
Mean IC70 [5]: 0.750 µM
pIC50 ([3]; Table 3): 6.48
pIC50 [4, 13]: 5.67

C=CCn1c(NN=C(C)c2ccccn2)nc2ccccc21 [Ic-5]
IC50 ([1]; Table 3, 72 hours): 0.01 µM
IC50 ([2]; Table 3, 72 hours): 12.8 µM
tumor type selectivity ([5]; colony forming assay): selectivity for colon, breast, ovarian, and uterus tumors
pIC50 [5]: 6.67
IC90 [5]: 3.33 µM
Mean IC70 [5]: 0,607 μM
pIC50 ([3]; Table 3): 6.74
pIC50 [4, 13]: 6.01

CC(=NNc1nc2ccccc2n1C1CC1)c1ccccn1 [Ic-6]
IC50 ([1]; Table 3, 72 hours): 0.4 µM
IC50 ([2]; Table 3, 72 hours): 11.2 µM
pIC50 ([3]; Table 3): 7.05

CC(=NNc1nc2ccccc2n1-c1ccccc1)c1ccccn1 [Ic-7, 1-(2-Pyridyl)-1-ethanone-1-(1-phenyl-1H-benzo[d]imidazol-2-yl)-hydrazone]
IC50 [1, 10]: 0.05 µM
IC50 [2, 11]: 0.1 µM
pIC50 ([5]; Homo sapiens): 6.12
IC90 ([5]; Homo sapiens): 6.3 µM
Mean IC70 [5]: 1.741 µM
pIC50 ([3]; Homo sapiens, K562, Table 3): 6.15
pIC50 [4, 12]: 5.46

CC(=NNc1nc2ccccc2n1Cc1ccccc1)c1ccccn1 [Ic-8]
IC50 ([1]; Table 3, 72 hours): 0.13 µM
IC50 ([2]; Table 3, 72 hours): 0.16 µM
pIC50 ([3]; Table 3): 6.35
pIC50 [4, 13]: 5.45

CC(=NNc1nc2ccccc2n1C)c1cc(N(C)C)ccn1 [Id-12]
induction of apoptosis (in words) (Burkitt's lymphoma cells): capable of inducing apoptosis
apoptotic cells (Burkitt's lymphoma cells): 60%
pIC50 [1]: 5.43
pIC50 [6]: 7.30
pIC50 ([2]; Table 4, 72 hours): 5.29
pIC50 ([7]; Table 4, 72 hours): 5.64
pIC50 ([4]; Table 4, 72 hours, read-out: In vitro-activity against human tumor cell lines, Burkitts): 5.66
pIC50 ([8]; Table 4, 72 hours): 6.09

CC(=NNc1nc2ccccc2n1C)c1cccc(-c2ccccc2)n1 [Id-17, 1-(6-Phenyl-2-pyridyl)-1-ethanone-1-(1-methyl-1H-benzo[d]imidazol-2-yl)-hydrazone]
induction of apoptosis (in words) (Burkitt's lymphoma cells): capable of inducing apoptosis
apoptotic cells (Burkitt's lymphoma cells): 85%
pIC50 ([1]; Homo sapiens, HeLa): 5.63
pIC50 ([6]; Homo sapiens): 5.00
pIC50 ([2]; Homo sapiens, HT-29, Table 4, 72 hours): 5.47
pIC50 ([7]; Homo sapiens, KB 3-1, Table 4, 72 hours): 5.41
pIC50 ([4]; Homo sapiens, CA46, Table 4, 72 hours, read-out: In vitro-activity against human tumor cell lines, Burkitts): 5.84
pIC50 ([8]; Homo sapiens, KBC-1, Table 4, 72 hours): 5.51

NC(=O)NO [hydroxyurea, reference compound]
apoptotic cells (Burkitt's lymphoma cells): 7.3%
in vitro anti-tumor activity against human cancer cells (in words) ([5]; colony forming assay, Table 5 / FIG. 1): far lower than that of the compounds according to the invention
